For orientation: IC50 means the point on the concentration scale where inhibition reaches its midpoint. A word on the EC50: it is the concentration needed to bring the measured effect to its halfway point.

From patent US11576979B2, “Pyrrolobenzodiazepine prodrugs and antibody conjugates thereof” (GENENTECH, INC., priority 2016, dated 2023) come the findings set out here.

Assay [1] has as its target T1, DT Diaphorase (Homo sapiens, UniProt P15559).
T1 construct: purchased Sigma D1315
Put plainly: in vitro DT diaphorase activated drug release assay (NADPH depletion). The assay is classed as biochemical. The conditions noted are these: in <5 min. As for the experimental part:
An in vitro DT diaphorase activated drug release assay was used to measure NADPH depletion. DT diaphorase activated release of Norfloxacin and Payload (PBD) was measured by the in vitro depletion of NADPH. The assay method was modified from the absorbance measurement of NADPH at A340 (Osman et. al, Chemico-Biological Interactions 147 (2004) 99-108) due to the interference of compounds. The depletion of NADPH was measured by monitoring the decrease of fluorescence intensity of NADPH at 480 nm after being excited at […]. […] Prior to assay, dilute the stock to 1 mM as the 5× working solution; (5) DT Diaphorase specific Inhibitor: prepare 40 mM stock of Dicumarol (Sigma, Cat #M1390-5G, MW=336.29) in 0.13 N NaOH, stored at 4° C. Dilute the stock to 250 uM as the 5× working solution; (6) Compounds: dilute the Norfloxacin and PBD conjugated compounds in assay buffer to 250 uM as the 5× working solution; and (7) 384 well black plate with clear bottom. For the assay procedure: (1) The reaction mix containing 0.5 uM DT-D, 50 uM compound, […] NADPH was set up in a 384 well plate at 50 ul/well. For the control with DT Diaphorase inhibitor, Dicumarol was added in the reaction mix at final 50 uM for each compound. Reaction mix containing NADPH and compound only was also added as the baseline controls. The DT Diaphorase was added in the last step; and (2) The reaction mixes were incubated at room temperature for 5, 30, 90 min. The fluorescence intensity (RFU) of DNAPH was recorded on M1000 plate reader (Tecan) with excitation at 340 nm and emission at 480 nm. For data analysis, data was analyzed and plotted using Prism GraphPad 6. The depletion of NADPH was calculated by the formula below at reaction time point at 90 min wherein: % NADPH depletion=[…].

The next assay relates to KPL-4. As to the kind of experiment: CELLTITER GLO cell proliferation assay (Example 6). The conditions noted are these: data in parenthesis = repeat evaluations. The assay is classed as cell-based. As for the experimental part: (§1) The toxicity of PBD monomer disulfide prodrugs and diaphorase prodrugs were evaluated against KPL-4, WSU-DLCL2, HCT-116, HCC1395 and Jurkat cell cultures. […] KPL-4 cells further have a high expression of DTD on the order of about 839 nRPKM (where nRPKM refers to normalized reads per Kb of transcript length per million mapped read).
(§2) Potency of the disulfide and DT-diaphorase prodrugs was measured by a cell proliferation assay employing the following protocol (CELLTITER GLO™ Luminescent Cell Viability Assay, Promega Corp.). First, an aliquot of 40 ul of cell culture containing about 8000 cells of WSU-DLCL2 cells (low NQO1 gene and GSH level), 4000 cells of KPL-4 (high NQO1 gene and GSH level), HCT-116 cells, HCC1395 cells or Jurkat cells in RPMI-1640 culture medium (supplemented with 10% fetal bovine serum, 2 mM glutamine, 50 uM cystine, and 0.015 g/L L-methionine) was deposited in each well of a 384-well flat clear bottom white polystyrene tissue culture-treated microplates (Corning, N.Y.). Second, control wells were prepared containing medium with and without cells. Third, compounds with and without disulfide or DT-diaphorase prodrugs (n=3) were added to the experimental wells using ECHO acoustic liquid handling technology (Labcyte Inc, Sunnyvale, Calif.) to create a 10-point dose-response curve in triplicate with 1:3× serial dilution. Fourth, cells were cultured in a humidified incubator set at 37° C. and maintaining an atmosphere of 5% CO2. Fifth, the plates were equilibrated to room temperature for approximately 30 minutes. Sixth, a volume of CELLTITER GLO™ Reagent equal to the volume of cell culture medium present in each well was added. Seventh, the contents were mixed for 10 minutes on an orbital shaker in the dark to induce cell lysis. Eighth, the plate was incubated at room temperature for 30 minutes to stabilize the luminescence signal. Ninth, luminescence was recorded and reported in graphs as % activity where RLU (relative luminescence units) was normalized to controls (no compound control minus no cell control). Tenth, data was plotted as individual points for each replicate (n=3) for each antibody as the mean of luminescence for each set of replicates, with standard deviation error bars.
(In ATP-based viability assays light output follows the ATP content of the culture.)

The test system of another assay is HCT-116. Put plainly: CELLTITER GLO cell proliferation assay (Example 6). As to conditions: Homo sapiens. It counts as cell-based. Here is the method: as §1, §2
The test system of a further assay is WSU-DLCL2. Put plainly: CELLTITER GLO cell proliferation assay (Example 6). As to conditions: data in parenthesis = repeat evaluations. The assay is classed as cell-based. Here is the method: as §1, §2
The next assay relates to WSU Cell line. As to the kind of experiment: Cell viability, DTD-activated quinone prodrugs (Example 15). It counts as cell-based. As for the experimental part: (§3) The toxicity of PBD dimer diaphorase prodrug 1, PBD monomer diaphorase prodrug 2, PBD dimer control 1 and PBD monomer control 1 were evaluated against KPL-4 and WSU cell lines for cell viability. The KPL-4 cell line is was a high DTD cell line characterized by NQO1 nRPKM of 839 and the WSU cell line was a low DTD cell line characterized by a NQO1 nRPKM of 1.36. The IC50 ratios are based on the prodrug IC50 value relative to the PBD dimer control.

A further assay relates to KPL-4 Cell line. Described as above. The assay is classed as cell-based. As for the experimental part:
as §3

A further assay concerns Jurkat. Put plainly: CELLTITER GLO cell proliferation assay (Example 6). As to conditions: Homo sapiens, Table 4, read-out: IC50 potency Jurkat. It counts as cell-based. Here is the method:
as §1, §2

A further assay deals with HCC1395. As to the kind of experiment: CELLTITER GLO cell proliferation assay (Example 6). The assay is classed as cell-based. The conditions noted are these: Homo sapiens, Table 4, read-out: IC50 potency HCC1395. Here is the method: as §1, §2
Assay [2] deals with MDA-MB-453 tumor cell line. Put plainly: in vitro tumor cell killing assay, 3 days (Example 13). It counts as cell-based. As to conditions: Homo sapiens, MDA-MB-453, 72 h. Here is the method:
The toxicity of various PBD monomer and dimer boronic acid prodrug compounds were evaluated for cell toxicity. In the in vitro tumor cell killing assay, the cells were added to each well of 96-well microtiter plates at 8,000 cells per well and were incubated overnight at 37° C. in a humidified atmosphere of 5% CO2. The cells were exposed to various concentration of the indicated prodrug, positive control and negative control compounds. Where silvestrol was evaluated, a 1:3 serial dilution was used. After incubation for 3 days, Cell titer-Glo reagent (Promega, Madison Wis.) was added to the wells at 100 μL per well followed by a 10-minute incubation at room temperature, and the luminescent signal was measured using a Packard/Perkin-Elmer TopCount.
The toxicity of PBD monomer boronic acid prodrug 1 was evaluated against MDA-MB-453 tumor cell line for cell viability. PBD monomer control 1 was used as a positive control and PBD monomer control 2 was used as a negative control. The toxicity study was repeated wherein the PBD prodrug and controls were administered in combination with silvestrol. FIG. 15C depicts a plot of MDA-MB-453 cell kill versus drug concentration in μM three days after exposure to: (i) a PBD monomer control; (ii) a PBD monomer control having a benzyl formate moiety at the N10 PBD position; and (iii) a PBD monomer boronic acid prodrug. […]

In assay [3] the target is T1, DT Diaphorase. Put plainly: DT diaphorase activated payload release (LC-MS MRM quant). It counts as biochemical. As to conditions: after 90 minutes incubation. As for the experimental part: In addition to the potency evaluation, the release of PBD dimer diaphorase prodrug 1 was evaluated. The release was measured to be 12% after 90 minutes incubation according to the following method. First, a master mix reaction was prepared containing 0.5 uM of the […], […] NADPH […]. Second, the reaction mix was incubated at room temperature for 5, 30, 90 min. […] Finally, data was analyzed using MultiQuant analysis software and standards were calculated using GraphPad Prism 6 linear regression fit.
An in vitro DT diaphorase activated drug release assay was used to measure NADPH depletion. DT diaphorase activated release of Norfloxacin and Payload (PBD) was measured by the in vitro depletion of NADPH. The assay method was modified from the absorbance measurement of NADPH at A340 (Osman et. al, Chemico-Biological Interactions 147 (2004) 99-108) due to the interference of compounds. The depletion of NADPH was measured by monitoring the decrease of fluorescence intensity of NADPH at 480 nm after being excited at 340 nM. […] The fluorescence intensity (RFU) of DNAPH was recorded on M1000 plate reader (Tecan) with excitation at 340 nm and emission at 480 nm. For data analysis, data was analyzed and plotted using Prism GraphPad 6. […]

Structures are written as SMILES. Read-outs that look alike come from different tables or passages of the source.

T1 sequence (P15559 whole entry): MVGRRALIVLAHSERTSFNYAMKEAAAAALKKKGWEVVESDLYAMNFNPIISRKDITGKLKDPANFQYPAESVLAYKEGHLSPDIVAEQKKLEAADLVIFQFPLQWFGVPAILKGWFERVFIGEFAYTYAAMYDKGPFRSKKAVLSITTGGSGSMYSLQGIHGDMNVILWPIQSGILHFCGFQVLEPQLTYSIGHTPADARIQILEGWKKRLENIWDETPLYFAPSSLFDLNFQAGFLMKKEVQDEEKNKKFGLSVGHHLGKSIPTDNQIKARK

In the case of `C=C1C[C@H]2C(O)N(C(=O)OCc3cc4c(n3C)C(=O)C=C(OC)C4=O)c3cc(OC)c(OC)cc3C(=O)N2C1` (stereo partly shown) [PBD monomer diaphorase prodrug 2], on DT Diaphorase [1], the “NADPH Dep.” value was over 90% in. The IC50 in the assay on KPL-4 (KPL4, read-out: IC50 potency KPL-4, Table 4) came to 0.344 µM; with KPL-4 (read-out: IC50 potency KPL-4, Table 4), 0.355 µM; with HCT-116 (HCT-116, read-out: IC50 potency HCT-116), 0.223 µM; in the assay with WSU-DLCL2 (Homo sapiens, WSUDLCL2, read-out: IC50 potency WSU-DLCL2, Table 4), 0.575 µM; in the assay on WSU-DLCL2 (read-out: IC50 potency WSU-DLCL2, Table 4) it was 0.288 µM; in the assay with WSU Cell line (read-out: IC50 Potency (nM)) it was 575 nM. Besides, the IC50 in the assay on KPL-4 Cell line (KPL4, read-out: IC50 Potency (nM)) was 344 nM.
As for `C=C1C[C@H]2C=Nc3cc(OCCCCCOc4cc5c(cc4OC)C(=O)N4CC(=C)C[C@H]4C(O)N5C(=O)OCc4ccc(NC(=O)OCc5cc6c(n5C)C(=O)C=C(OC)C6=O)cc4)c(OC)cc3C(=O)N2C1` (stereo partly shown) [PBD dimer diaphorase prodrug 2], the IC50 in the assay on KPL-4 (KPL4, Table 4, read-out: IC50 potency KPL-4) was determined as 0.0101 µM; in the assay on Jurkat it was 0.00125 µM; in the assay with HCC1395, 0.00984 µM; with WSU-DLCL2 (Homo sapiens, WSUDLCL2, Table 4, read-out: IC50 potency WSU-DLCL2), 0.0008 µM.
With `C=C1C[C@H]2C(O)N(C(=O)OCc3ccc(B4OC(C)(C)C(C)(C)O4)cc3)c3cc(OC)c(OC)cc3C(=O)N2C1` (stereo partly shown) [PBD monomer boronic acid prodrug 1], the EC50 in assay [2] was found to be 1.85 µM.
As for `C=C1C[C@H]2C=Nc3cc(OCCCCCOc4cc5c(cc4OC)C(=O)N4CC(=C)C[C@H]4C(O)N5C(=O)OCc4cc5c(n4C)C(=O)C=C(OC)C5=O)c(OC)cc3C(=O)N2C1` (stereo partly shown) [PBD dimer diaphorase prodrug 1], the release at DT Diaphorase [3] stood at 12%. Moreover, the IC50 is 0.0213 µM in the assay on HCT-116 (HCT-116, Table 4, read-out: IC50 potency HCT-116); 0.00205 µM in the assay on Jurkat; 0.0142 µM with HCC1395; 8.56 nM with WSU Cell line (WSU Cell line (low DTD), Table 10, read-out: IC50 Potency); 35.5 nM with KPL-4 Cell line (KPL4, KPL-4 Cell line (high DTD), Table 10, read-out: IC50 Potency).
